Laboratory results as given in patent US11629193B2, “EGFR binding molecules” (F-STAR BETA LIMITED, priority 2016, dated 2023).

Tests used:
NCI-H1975 cells = assay: Cell proliferation, NCI-H1975 cells stimulated with HGF; type: cell-based; conditions: NCI-H1975, antibodies 300 nM with and without erlotinib (2 μM)
Method: NCI-H1975 (ATCC CRL-5908) is a non-small cell lung cancer (NSCLC) cell line which expresses constitutively active mutated EGFR L858R and EGFR T790M (Kobayashi et al 2005). These mutations are acquired secondary mutations known to confer resistance to EGFR tyrosine kinase inhibitor (TKI) therapies in NSCLC patients. The NCI-H1975 cell line also expresses c-Met. […] The same method was used as in the U87MG assay described above, except that the NCI-H1975 cells were stimulated with HGF. One day before the treatment, the medium used was changed from containing 10% FBS to containing no serum. Treatments were added at various concentrations (0.003-300 nM) in the presence of 80 ng/ml HGF and incubated for 3 days at 37° C.

[1] = tested on: phosphorylation of c-Met and EGFR; assay: Western blot of receptor phosphorylation in U87MG cells; type: cell-based, human; conditions: 200 nM, 20 min
Method: (§1) Overnight cultures of the glioblastoma cell line U87MG (ATCC HTB-14) were moved from a medium with 10% FBS to a low serum medium with 0.1% FBS to optimise sensitivity to ligand stimulation. The cells were incubated overnight. […] Controls without antibody treatment were included, with and without growth factor stimulation. The treated cells were lysed using lysis buffer (10 mM Tris® pH7.5, 150 mM NaCl, 1 mM EDTA) comprising 1:100 protease inhibitor cocktail (Calbiochem, 539131) and 1:100 Phosphatase inhibitor cocktail (Calbiochem, 524625) and the lysates collected for analysis.
(§2) Lysate samples were subjected to standard western blotting analysis using a 4-12% Bis-Tris® protein gel (ThermoFisher, NP0322BOX) and transferred to a nitrocellulose membrane (ThermoFisher, IB301001). The membrane was blocked with 5% Marvel milk/TBST and then probed for phospho-c-Met using a rabbit monoclonal antibody specific for c-Met phosphorylated at Tyr1234/1235 (Cell Signaling, 3077), phospho-EGFR using a mouse monoclonal antibody specific for EGFR phosphorylated at Tyr1068 (Cell Signaling, 2236), phospho-MAPK using a mouse monoclonal antibody specific for p44/42 MAPK (ERK1/2) phosphorylated at Thr202/Tyr204 (Cell Signaling, 9106), and phospho-Akt using a rabbit monoclonal antibody specific for Akt phosphorylated at Ser473 (Cell Signaling, 9271). […]

HGF = HGF (Homo sapiens, UniProt P14210); assay: Free HGF in culture media of U87MG cells (HGF Human ELISA Kit); type: cell-based; set-up: examined in U87MG cells that secrete HGF; endogenous in cells; host or cells: U87MG; conditions: 30 nM, 4 days, compared to controls
Chain of HGF (P14210 32-728): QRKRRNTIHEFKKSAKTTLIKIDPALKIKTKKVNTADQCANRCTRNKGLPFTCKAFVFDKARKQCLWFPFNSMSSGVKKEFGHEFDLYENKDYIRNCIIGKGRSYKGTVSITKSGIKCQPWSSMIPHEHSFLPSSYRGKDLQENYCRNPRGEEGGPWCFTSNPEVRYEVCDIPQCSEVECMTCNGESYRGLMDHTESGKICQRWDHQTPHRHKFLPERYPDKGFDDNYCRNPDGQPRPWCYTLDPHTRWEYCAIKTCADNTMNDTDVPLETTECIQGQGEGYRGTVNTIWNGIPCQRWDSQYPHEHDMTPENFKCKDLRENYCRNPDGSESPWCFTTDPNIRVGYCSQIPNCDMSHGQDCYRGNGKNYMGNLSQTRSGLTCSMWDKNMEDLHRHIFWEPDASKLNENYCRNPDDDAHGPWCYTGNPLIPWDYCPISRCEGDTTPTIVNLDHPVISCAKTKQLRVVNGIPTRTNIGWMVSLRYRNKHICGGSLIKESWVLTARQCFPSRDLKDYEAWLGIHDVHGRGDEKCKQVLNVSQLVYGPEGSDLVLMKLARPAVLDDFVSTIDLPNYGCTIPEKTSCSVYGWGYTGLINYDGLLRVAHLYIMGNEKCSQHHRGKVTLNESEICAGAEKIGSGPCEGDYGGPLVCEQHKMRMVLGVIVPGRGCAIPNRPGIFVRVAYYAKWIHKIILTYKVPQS
Method: It was hypothesised that internalisation of HGF by anti-EGFR/HGF mAb^2 leads to reduced level of HGF in the system. To test this hypothesis, the change in level of free HGF caused by incubation with anti-EGFR/HGF mAb^2 was examined in U87MG cells that secrete HGF. U87MG cultures were incubated with different treatments at 30 nM for 4 days at 37° C. […] On day 4, the media from each cell culture were collected for HGF level analysis. HGF concentration was measured using HGF Human ELISA Kit (ThermoFisher, KAC2211) following the manufacturer's protocol. Using monoclonal anti-HGF antibodies, the free HGF in media was detected (free HGF was defined as HGF in the media which was bound by detection antibodies).

[2] = tested on: phosphorylation of MAPK and Akt; assay: Western blot of downstream signalling in U87MG cells; type: cell-based, human; conditions: 200 nM (200+200 nM for combination), HGF and EGF present
Method: as §1, §2

LL2.ova = assay: In vivo skin toxicity and tumour growth, syngeneic mouse tumour model LL2.ova; conditions: 250 μg intraperitoneally on days 3, 6 and 10; eight mice each
Method: Skin toxicity has been observed with known anti-EGFR therapies, resulting in skin rash, lesions etc. In order to determine the toxicity of anti-EGFR Fcabs and mAb^2 containing anti-EGFR Fcs, an in vivo study was conducted. […] The tumour cells (5×10^5 cells) were implanted subcutaneously in the flank of female C57B16 (Charles River) mice aged 6-8 weeks and the mice were randomly assigned to four cohorts of eight mice each. […] The tumour volumes were measured with electronic callipers at days 10, 12, 14, 17, 19, 20 and 21. At day 16 pictures of the mice were taken to illustrate the observed skin toxicity.

C#Cc1cccc(Nc2ncnc3cc(OCCOC)c(OCCOC)cc23)c1 [erlotinib, reference compound]
reduction of cell proliferation induced by HGF (NCI-H1975 cells): No effect

rilotumumab [reference compound]
block of phosphorylation of c-Met by HGF [1]: able to block the phosphorylation of c-Met by HGF
concentration of free HGF in the media (HGF): significant decrease in the concentration of free HGF in the media
block of phosphorylation of MAPK and Akt [2]: unable to block the phosphorylation of MAPK and Akt

9D9m2a: anti-mouse CTLA4 antibody: 9D9 VH in mouse IgG2a backbone, heavy chain SEQ ID NO: 52, light chain SEQ ID NO: 50 [Fcab 9D9m2a, reference compound]
Mice showing hair loss (LL2.ova): 0/8
Skin lesions (LL2.ova): 0/8
